Where no end group is shown, it is not given here.
Key:
[1] = tested on: binding between p53 and mortalin (amino acid residues 1-435 or 105-435); assay: competitive inhibition assay of p53-mortalin binding; conditions: increasing amounts of competitor peptide
Text: (C) The increase of the amounts of the peptide (comp. pep) corresponding to the mortalin amino acid residues 253-282 to be added reduced the […] the mortalin amino acid residues 1-435 (mot 1-435) and the peptide corresponding to mortalin amino acid residues 105-435 (mot 105-435). p53 was immunoprecipitated with the polyclonal anti-p53 antibody (CM-1) and detected by Western blotting with a monoclonal anti-p53 antibody (PAb 421)) (bands represented with an arrowhead). Co-immunoprecipitated mortalin was detected by Western blotting with anti-His tag antibody (indicated by arrows).
Next, a competitive inhibition assay was performed to confirm the involvement of this peptide of amino acid residues 253-282 in the binding to p53.

COS7 cells = assay: localization of GFP-fused p53 fragments expressed in COS7 cells; type: cell-based; conditions: COS7 cells transfected with GFP-fused protein
Text: (B) A photograph showing the green fluorescence of GFP in COS7 cells transfected with (a) GFP alone, (b) GFP-p53 (amino acid residues 312-352), and (c) GFP-p53 (amino acid residues 312-319).
Since the in vitro translated product of a 43 kDa truncated p53, lacking the C terminus, lacks the ability to bind to mortalin protein as described in Example 1, it was presumed that this deleted region contains the region that is related to the binding to mortalin.

mortalin = assay: immunoprecipitation of GFP-p53 fragments using anti-mortalin antibody; type: binding; conditions: transfected cells, probed with anti-GFP antibody
Text: (C) Mortalin was immunoprecipitated from cells transfected with GFP-tagged p53 fragments with polyclonal anti-mortalin antibodies, and was visualized with monoclonal antibodies. Immunocomplexes (Mot-IC) were also probed with monoclonal anti-GFP antibody to determine whether the p53 fusion proteins co-precipitate with mortalin (left panel). […] Bands corresponding to the IgG heavy and light chains are also detected on Mot-IC gel.

[2] = biological target: T1, full-length mouse wild-type p53 (Mus musculus, UniProt P02340); assay: in vitro binding assay of mortalin protein and p53 protein (co-immunoprecipitation); conditions: His-tagged recombinant mortalin, in vitro translated 35S-labeled p53, co-precipitation
T1 construct: mRNA encoding full-length mouse wild-type p53; made in house; host or cells: in vitro translation in rabbit reticulocyte lysate (Stratagene)
Procedure: After preparing mRNA encoding full-length mouse wild-type p53 with a template of pSP65/p53 plasmid (Braithwaite, A. W. and Jenkins, J. R. (1989) J. Virol. 63, 1792-1799) using Transprobe T Kit (Pharmacia), [^35S]-labeled p53 protein was obtained by subjecting to in vitro translation reaction using rabbit reticulocyte lysate (Stratagene) for 1 hour in the presence of L-[^35S]methionine. After separating the translation products by SDS-PAGE, the translation reaction products were confirmed by autoradiography. The in vitro translated p53 protein was purified by immunoprecipitation with anti-p53 antibodies (PAb 421, PAb 1620 (Calbiochem), and PAb 122 (Boehringer-Mannheim)), and was used in the subsequent in vitro binding assays described below.
After preparing cDNAs encoding the recombinant mortalin protein (full-length) and various deletion mutants (described later) by PCR and converting them to a form to encode a His-tagged protein by inserting the cDNAs into pQE30 vector (Qiagen) the cDNAs were introduced into E. coli for expression. The resulting bacterial extracts were purified with Ni-NTA agarose (Qiagen). […] Then, p53 protein was detected by autoradiography; mortalin and deletion mutants thereof were detected by Western blotting with anti-His antibody and ECL-chemiluminescence (Amersham).

[3] = tested on: p53-dependent transcriptional activation; assay: p53 responsive β-gal reporter assay by microinjection into Saos2 cells; type: cell-based, human; conditions: for β-Gal Staining: Percent of Blue cells / β-Gal Staining: Blue cells: Saos2, microinjected with pMSV p53 and p53 β-gal rep.
Text: (C) The p53 activity detected for the p53 responsive β-galactosidase reporter construct was inhibited when a plasmid encoding mot-2 (b and i) , mut-11 (d and K), or mutant V16M (f and m) was simultaneously microinjected with the p53 expression plasmid. […] Microinjected cells were visualized by staining with FITC-labeled anti-rabbit IgG (a-g).
Similar results were obtained according to an experiment wherein the above mutant mortalin proteins, temperature-sensitive mutant p53 protein, and p53 responsive β-gal reporter gene pRGCΔfos-lacZ were introduced into a human osteosarcoma cell line Saos2 by microinjection.

[4] = tested on: p53-dependent transcriptional activation; assay: p53-dependent luciferase reporter analysis in p53-/- mouse embryonic fibroblasts; type: cell-based; conditions: p53-/- MEF, PG13-luc type reporter, temperature-sensitive p53 at 32.5° C.
Text: After preparing cDNAs that encode mutant mortalin proteins missing each of the functions shown in FIG. 3A and mortalin proteins point mutated at two different amino acid residues between mot-1 and mot-2 according to the method described in Example 1, the cDNAs were used for p53-dependent reporter analysis. Specifically, cells obtained by stable transfection of plasmid […], wherein the firefly luciferase gene has been linked to p53 responsive promoter (having the promoter sequence “[…]” and expresses the gene downstream of that sequence as a result of binding with p53 protein), and temperature-sensitive mutant p53 protein expression vector pMSVp53Val135 into mouse embryonic fibroblasts deficient in functional p53 gene (P53−/−MEF) (see, Wadhwa, R. et al. (1998) J. Biol. Chem. 273, 29586-29591) were transfected with various mortalin mutant protein expression vectors and pRL-CMV, serving as an internal control for standardizing transcription efficiency. After incubation at 32.5° C., which is an allowable temperature for the mutant p53 protein, the luciferase activity was measured.

T1 sequence (P02340 whole entry): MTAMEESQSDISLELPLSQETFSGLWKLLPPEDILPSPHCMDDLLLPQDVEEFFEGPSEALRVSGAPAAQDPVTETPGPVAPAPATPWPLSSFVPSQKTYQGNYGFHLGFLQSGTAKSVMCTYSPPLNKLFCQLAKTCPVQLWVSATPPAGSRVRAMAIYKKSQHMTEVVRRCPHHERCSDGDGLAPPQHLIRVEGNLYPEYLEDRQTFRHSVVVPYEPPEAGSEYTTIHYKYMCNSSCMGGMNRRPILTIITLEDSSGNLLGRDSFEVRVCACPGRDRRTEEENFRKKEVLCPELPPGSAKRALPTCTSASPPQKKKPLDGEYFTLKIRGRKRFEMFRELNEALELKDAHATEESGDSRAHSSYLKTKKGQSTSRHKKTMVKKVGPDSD

## 253-282: peptide corresponding to the mortalin amino acid residues 253-282
[1]
  inhibition of binding between p53 and mortalin: inhibited binding between p53 and mortalin

## GFP-p53 (amino acid residues 312-352): green fluorescent protein fused with p53 amino acid residues 312-352 ({GFP}-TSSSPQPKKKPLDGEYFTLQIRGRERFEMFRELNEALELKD; UniProt P04637 312-352, looked up, fragment)
COS7 cells
  expressed proteins localized to the vicinity of the nucleus: about 90%
mortalin
  binding to mortalin (co-precipitation): confirmed to bind to mortalin

## GFP-p53 (amino acid residues 372-390): green fluorescent protein fused with p53 amino acid residues 372-390 ({GFP}-KKGQSTSRHKKLMFKTEGP; UniProt P04637 372-390, looked up, fragment)
mortalin
  binding to mortalin (co-precipitation): no precipitation

## mot-1: mortalin protein cloned from normal mouse cells; differs from mot-2 by two amino acids (residues 618 and 624)
[2]
  binding with full-length p53 protein: specifically bound
[3]
  β-Gal Staining: Percent of Blue cells: 88%
[3]; with Anti-mot IgG
  β-Gal Staining: Blue cells: 83
  β-Gal Staining: Percent of Blue cells: 90%
[3]; number of blue cells among transfected cells
  β-Gal Staining: Blue cells: 52
[3]; Saos2, microinjection
  effect on p53-dependent transcriptional activation (β-gal reporter): did not have a significant effect
[4]
  inhibition of p53-dependent transcriptional activation (luciferase activity): did not have any effect
